Measured values from ChEMBL document CHEMBL5357082, “Identification and Optimization of Small Molecule Pyrazolopyrimidine TLR7 Agonists for Applications in Immuno-oncology” (ACS Med Chem Lett, 2024).

Assays:
Toll-like receptor 7 [1] = target: T1, Toll-like receptor 7 (Homo sapiens, UniProt Q9NYK1); assay: Agonist activity at human TLR7 in HEK-Blue hTLR7 cells harboring SEAP reporter transgene incubated for 18 hrs by quanti-blue reagent based assay; assay type: cell-based
T1 sequence (Q9NYK1 whole entry): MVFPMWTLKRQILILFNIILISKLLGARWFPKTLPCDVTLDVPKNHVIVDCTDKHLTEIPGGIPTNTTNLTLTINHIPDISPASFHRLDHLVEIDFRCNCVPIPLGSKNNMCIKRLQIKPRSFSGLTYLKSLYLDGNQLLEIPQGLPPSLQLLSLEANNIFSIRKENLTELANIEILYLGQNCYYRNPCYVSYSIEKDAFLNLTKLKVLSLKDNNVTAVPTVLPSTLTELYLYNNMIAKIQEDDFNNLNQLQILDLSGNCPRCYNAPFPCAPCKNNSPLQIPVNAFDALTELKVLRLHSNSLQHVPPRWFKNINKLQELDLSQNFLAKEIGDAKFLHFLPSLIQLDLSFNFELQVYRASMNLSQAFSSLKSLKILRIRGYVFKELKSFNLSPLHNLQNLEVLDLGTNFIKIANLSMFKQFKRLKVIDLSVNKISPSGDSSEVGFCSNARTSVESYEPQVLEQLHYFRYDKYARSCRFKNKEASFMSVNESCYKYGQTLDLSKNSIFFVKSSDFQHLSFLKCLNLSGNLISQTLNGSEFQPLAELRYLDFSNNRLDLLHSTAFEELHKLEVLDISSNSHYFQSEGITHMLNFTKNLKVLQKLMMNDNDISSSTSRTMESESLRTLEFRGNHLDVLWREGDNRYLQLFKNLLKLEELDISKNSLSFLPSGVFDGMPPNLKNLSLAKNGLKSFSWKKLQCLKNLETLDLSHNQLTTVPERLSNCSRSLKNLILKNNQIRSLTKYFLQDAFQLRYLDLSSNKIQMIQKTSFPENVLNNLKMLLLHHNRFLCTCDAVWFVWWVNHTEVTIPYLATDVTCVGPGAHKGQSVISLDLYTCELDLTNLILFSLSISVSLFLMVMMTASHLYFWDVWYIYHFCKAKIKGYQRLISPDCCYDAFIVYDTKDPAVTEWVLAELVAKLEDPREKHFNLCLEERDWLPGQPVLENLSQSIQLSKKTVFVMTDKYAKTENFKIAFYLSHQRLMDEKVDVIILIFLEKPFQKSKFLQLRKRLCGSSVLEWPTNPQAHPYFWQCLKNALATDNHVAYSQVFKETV

Toll-like receptor 7 [2] = target: T2, Toll-like receptor 7 (Mus musculus, UniProt P58681); assay: Agonist activity at mouse TLR7
T2 sequence (P58681 whole entry): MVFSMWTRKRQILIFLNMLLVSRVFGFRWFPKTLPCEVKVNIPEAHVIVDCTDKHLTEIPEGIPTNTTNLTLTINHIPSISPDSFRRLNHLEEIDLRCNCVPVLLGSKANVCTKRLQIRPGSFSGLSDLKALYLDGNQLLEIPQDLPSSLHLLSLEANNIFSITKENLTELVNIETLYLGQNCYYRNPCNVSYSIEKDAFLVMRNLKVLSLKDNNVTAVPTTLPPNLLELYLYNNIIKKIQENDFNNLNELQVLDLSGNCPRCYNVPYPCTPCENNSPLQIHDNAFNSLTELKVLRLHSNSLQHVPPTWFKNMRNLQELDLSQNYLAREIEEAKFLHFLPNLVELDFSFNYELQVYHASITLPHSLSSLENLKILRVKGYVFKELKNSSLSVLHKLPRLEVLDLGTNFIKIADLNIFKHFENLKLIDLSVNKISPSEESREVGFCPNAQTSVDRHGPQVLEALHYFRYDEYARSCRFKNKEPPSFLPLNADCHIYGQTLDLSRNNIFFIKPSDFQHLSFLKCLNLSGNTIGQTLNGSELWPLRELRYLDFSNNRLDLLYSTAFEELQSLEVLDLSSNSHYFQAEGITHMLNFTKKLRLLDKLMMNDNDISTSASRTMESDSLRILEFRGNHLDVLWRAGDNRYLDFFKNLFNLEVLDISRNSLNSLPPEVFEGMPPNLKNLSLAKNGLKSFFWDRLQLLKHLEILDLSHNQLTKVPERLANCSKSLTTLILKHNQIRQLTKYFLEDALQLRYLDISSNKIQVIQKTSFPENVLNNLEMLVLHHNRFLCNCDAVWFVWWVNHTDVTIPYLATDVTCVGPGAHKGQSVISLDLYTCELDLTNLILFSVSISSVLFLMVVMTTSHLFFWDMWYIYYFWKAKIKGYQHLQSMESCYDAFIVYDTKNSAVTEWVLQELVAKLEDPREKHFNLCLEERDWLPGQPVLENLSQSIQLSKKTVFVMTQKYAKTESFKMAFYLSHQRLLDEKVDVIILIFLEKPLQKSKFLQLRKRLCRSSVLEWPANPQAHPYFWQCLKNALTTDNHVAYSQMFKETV

Cytochrome P450 2C19 = Cytochrome P450 2C19 (Homo sapiens, UniProt P33261); assay: Inhibition of CYP2C19 (unknown origin); assay type: ADME; settings: for inhibition (INH): human
Cytochrome P450 2C19, sequence (P33261 whole entry): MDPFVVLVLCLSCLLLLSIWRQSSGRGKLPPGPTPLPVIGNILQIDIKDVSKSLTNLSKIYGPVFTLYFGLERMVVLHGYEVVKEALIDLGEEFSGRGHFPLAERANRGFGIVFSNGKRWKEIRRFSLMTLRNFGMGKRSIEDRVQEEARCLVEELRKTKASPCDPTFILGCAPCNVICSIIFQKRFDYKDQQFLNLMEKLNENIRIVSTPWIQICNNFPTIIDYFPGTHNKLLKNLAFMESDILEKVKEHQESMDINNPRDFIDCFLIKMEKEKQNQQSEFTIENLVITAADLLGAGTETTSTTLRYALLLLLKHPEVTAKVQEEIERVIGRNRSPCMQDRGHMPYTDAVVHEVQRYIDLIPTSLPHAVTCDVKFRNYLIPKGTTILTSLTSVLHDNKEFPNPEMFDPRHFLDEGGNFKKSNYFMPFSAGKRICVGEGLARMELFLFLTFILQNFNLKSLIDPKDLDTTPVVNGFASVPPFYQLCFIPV

Cytochrome P450 3A4 [3] = target: T3, Cytochrome P450 3A4 (Homo sapiens, UniProt P08684); assay: Inhibition of CYP3A4 (unknown origin) using BFC as substrate; assay type: ADME; settings: for inhibition (INH): human
T3 sequence (P08684 whole entry): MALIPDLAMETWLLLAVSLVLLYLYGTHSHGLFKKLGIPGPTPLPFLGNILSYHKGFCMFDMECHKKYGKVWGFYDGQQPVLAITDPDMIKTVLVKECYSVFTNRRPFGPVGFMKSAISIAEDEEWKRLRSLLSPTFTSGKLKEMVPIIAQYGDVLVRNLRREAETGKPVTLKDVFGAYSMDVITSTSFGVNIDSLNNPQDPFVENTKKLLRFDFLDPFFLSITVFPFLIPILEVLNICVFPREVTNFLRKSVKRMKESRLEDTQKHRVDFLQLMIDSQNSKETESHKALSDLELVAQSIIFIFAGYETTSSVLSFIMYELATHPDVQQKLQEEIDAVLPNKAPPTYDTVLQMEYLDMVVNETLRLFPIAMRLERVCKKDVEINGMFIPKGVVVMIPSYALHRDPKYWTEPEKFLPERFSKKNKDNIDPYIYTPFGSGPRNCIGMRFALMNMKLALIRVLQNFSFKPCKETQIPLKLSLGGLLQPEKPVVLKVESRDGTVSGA

[4] = target: Voltage-gated inwardly rectifying potassium channel KCNH2 (Homo sapiens, UniProt Q12809); assay: Inhibition of hERG; assay type: toxicity; settings: for inhibition (INH): human
Voltage-gated inwardly rectifying potassium channel KCNH2, sequence (Q12809 whole entry): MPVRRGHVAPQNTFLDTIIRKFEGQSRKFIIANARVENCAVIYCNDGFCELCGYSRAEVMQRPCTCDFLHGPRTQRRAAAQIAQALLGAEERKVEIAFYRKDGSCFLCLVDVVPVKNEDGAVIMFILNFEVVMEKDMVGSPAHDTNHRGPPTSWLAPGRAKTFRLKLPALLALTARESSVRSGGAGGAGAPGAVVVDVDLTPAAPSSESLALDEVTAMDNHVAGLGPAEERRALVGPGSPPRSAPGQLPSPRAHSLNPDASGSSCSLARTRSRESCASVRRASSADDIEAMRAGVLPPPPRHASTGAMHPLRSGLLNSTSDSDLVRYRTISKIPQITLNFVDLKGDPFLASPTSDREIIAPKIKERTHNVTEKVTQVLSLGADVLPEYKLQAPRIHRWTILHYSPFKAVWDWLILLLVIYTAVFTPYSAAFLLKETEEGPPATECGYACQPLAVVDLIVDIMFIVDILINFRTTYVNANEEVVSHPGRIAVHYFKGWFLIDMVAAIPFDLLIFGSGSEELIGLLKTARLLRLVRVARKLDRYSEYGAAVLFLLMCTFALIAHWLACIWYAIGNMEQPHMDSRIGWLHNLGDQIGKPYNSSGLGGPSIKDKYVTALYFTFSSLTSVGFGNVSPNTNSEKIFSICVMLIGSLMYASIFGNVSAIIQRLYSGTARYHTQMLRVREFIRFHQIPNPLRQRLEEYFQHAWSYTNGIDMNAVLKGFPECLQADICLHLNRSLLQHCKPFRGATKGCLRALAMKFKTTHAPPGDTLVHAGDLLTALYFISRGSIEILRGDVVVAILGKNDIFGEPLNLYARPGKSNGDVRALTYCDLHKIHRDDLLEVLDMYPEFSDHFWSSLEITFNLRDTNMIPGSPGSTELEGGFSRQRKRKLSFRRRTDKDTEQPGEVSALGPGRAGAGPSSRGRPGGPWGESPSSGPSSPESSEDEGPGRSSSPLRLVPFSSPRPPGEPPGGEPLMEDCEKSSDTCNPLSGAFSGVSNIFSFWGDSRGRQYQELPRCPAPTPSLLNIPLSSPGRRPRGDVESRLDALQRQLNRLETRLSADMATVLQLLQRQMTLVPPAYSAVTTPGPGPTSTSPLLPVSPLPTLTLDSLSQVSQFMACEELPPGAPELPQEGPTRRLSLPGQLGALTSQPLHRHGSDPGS

Cytochrome P450 2C8 = target: T4, Cytochrome P450 2C8 (Homo sapiens, UniProt P10632); assay: Inhibition of CYP2C8 (unknown origin); assay type: ADME; settings: for inhibition (INH): human
T4 sequence (P10632 whole entry): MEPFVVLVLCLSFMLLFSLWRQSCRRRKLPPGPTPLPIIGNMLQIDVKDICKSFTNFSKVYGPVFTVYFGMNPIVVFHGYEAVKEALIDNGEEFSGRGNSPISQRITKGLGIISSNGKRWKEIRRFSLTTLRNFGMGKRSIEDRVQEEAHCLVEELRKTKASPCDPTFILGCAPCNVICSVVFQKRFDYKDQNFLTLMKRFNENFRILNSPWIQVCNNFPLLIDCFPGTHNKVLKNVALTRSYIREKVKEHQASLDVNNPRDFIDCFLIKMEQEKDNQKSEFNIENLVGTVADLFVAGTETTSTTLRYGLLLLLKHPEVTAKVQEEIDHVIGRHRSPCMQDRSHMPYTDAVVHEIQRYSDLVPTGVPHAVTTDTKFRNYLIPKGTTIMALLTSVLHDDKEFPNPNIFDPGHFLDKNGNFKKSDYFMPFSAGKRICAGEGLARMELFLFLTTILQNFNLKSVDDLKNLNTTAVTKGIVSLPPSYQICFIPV

[5] = Metabolic stability in human liver microsomes assessed as compound remaining at 0.5 uM incubated for 10 mins in presence of NADPH by UV absorbance based assay; assay type: ADME, Microsome; settings: read-out: Stability
[6] = Cytotoxicity against PHA-activated T-cells (unknown origin) assessed as inhibition of IL-2 induced cell proliferation measured after 72 hrs by MTS assay; assay type: toxicity, cell-based
[7] = Metabolic stability in mouse liver microsomes assessed as compound remaining at 0.5 uM incubated for 10 mins in presence of NADPH by UV absorbance based assay; assay type: ADME, Microsome; settings: read-out: Stability
Cytochrome P450 1A2 = target: T5, Cytochrome P450 1A2 (Homo sapiens, UniProt P05177); assay: Inhibition of CYP1A2 (unknown origin); assay type: ADME; settings: for inhibition (INH): human
T5 sequence (P05177 whole entry): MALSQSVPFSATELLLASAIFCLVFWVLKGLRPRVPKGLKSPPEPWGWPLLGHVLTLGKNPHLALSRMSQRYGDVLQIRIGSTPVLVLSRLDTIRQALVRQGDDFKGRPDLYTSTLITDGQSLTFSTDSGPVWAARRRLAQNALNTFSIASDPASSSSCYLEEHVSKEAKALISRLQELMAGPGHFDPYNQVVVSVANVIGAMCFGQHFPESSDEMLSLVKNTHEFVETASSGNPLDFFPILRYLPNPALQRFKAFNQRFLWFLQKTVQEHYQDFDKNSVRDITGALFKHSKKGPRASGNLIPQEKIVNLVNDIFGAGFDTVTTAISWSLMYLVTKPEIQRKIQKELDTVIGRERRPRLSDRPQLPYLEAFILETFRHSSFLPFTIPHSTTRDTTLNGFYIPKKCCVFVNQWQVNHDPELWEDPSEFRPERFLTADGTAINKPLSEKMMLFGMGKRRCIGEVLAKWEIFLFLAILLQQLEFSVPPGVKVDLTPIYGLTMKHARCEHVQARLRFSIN

Cytochrome P450 2C9 = Cytochrome P450 2C9 (Homo sapiens, UniProt P11712); assay: Inhibition of CYP2C9 (unknown origin); assay type: ADME; settings: for inhibition (INH): human
Cytochrome P450 2C9, sequence (P11712 whole entry): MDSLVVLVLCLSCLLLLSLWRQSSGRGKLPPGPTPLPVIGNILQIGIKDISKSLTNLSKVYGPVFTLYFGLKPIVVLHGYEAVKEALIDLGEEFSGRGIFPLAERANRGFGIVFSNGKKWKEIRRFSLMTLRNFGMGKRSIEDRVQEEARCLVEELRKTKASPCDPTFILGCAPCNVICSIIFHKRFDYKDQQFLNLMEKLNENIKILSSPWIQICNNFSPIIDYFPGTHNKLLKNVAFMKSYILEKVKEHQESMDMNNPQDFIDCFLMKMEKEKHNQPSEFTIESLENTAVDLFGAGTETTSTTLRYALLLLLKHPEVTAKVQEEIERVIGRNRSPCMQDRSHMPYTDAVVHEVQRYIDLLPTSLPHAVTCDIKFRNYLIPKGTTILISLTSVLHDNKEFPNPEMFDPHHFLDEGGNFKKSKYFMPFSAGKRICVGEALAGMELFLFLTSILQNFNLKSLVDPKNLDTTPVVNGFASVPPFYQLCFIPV

Cytochrome P450 2D6 = Cytochrome P450 2D6 (Homo sapiens, UniProt P10635); assay: Inhibition of CYP2D6 (unknown origin); assay type: ADME; settings: for inhibition (INH): human
Cytochrome P450 2D6, sequence (P10635 whole entry): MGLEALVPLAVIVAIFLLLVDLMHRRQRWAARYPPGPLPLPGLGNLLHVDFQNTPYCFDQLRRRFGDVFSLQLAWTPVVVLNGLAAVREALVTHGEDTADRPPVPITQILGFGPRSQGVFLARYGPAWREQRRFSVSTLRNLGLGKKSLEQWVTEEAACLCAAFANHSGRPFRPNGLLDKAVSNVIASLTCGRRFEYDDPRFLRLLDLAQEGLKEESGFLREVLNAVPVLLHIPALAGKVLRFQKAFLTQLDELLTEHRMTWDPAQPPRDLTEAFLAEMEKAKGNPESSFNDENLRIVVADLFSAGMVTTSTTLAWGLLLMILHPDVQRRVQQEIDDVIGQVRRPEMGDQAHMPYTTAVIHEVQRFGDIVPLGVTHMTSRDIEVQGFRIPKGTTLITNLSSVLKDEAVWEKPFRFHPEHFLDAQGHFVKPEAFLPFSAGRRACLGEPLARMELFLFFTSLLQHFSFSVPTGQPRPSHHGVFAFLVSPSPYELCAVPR

Cytochrome P450 3A4 [8] = target: T3, Cytochrome P450 3A4; assay: Inhibition of CYP3A4 (unknown origin) using BFC as substrate preincubated with compound followed by substrate addition at 30 mins; assay type: ADME
Cytochrome P450 3A4 [9] = target: T3, Cytochrome P450 3A4; assay: Inhibition of CYP3A4 (unknown origin) using BFC as substrate preincubated with compound followed by substrate addition at 5 mins; assay type: ADME

Row | SMILES | EC50 (Toll-like receptor 7 [1]) [µM] | EC50 (Toll-like receptor 7 [2]) [µM] | remaining at 10 min, 0.5 µM [5] [%] | IC50 at 72 h [6] [µM] | remaining at 10 min, 0.5 µM [7] [%] | IC50 (Cytochrome P450 2C19) [µM] | IC50 (Cytochrome P450 3A4 [3]) [µM] | IC50 [4] [µM] | IC50 (Cytochrome P450 2C8) [µM] | IC50 (Cytochrome P450 3A4 [8]) [µM] | IC50 (Cytochrome P450 3A4 [9]) [µM] | IC50 (Cytochrome P450 1A2) [µM] | IC50 (Cytochrome P450 2C9) [µM] | IC50 (Cytochrome P450 2D6) [µM] | other results
1 | CCCCNc1nc(N)nc2cnn(Cc3ccc(C4CCNCC4)cc3OC(F)F)c12 | 0.087 | 0.465 | 100 | > 25 | 17 |  |  |  |  |  |  |  |  |  | inhibition (INH) (Cytochrome P450 2C19): Not Active; inhibition (INH) (Cytochrome P450 3A4 [3]): Not Active; inhibition (INH) [4]: Not Active; inhibition (INH) (Cytochrome P450 2C8): Not Active; inhibition (INH) (Cytochrome P450 1A2): Not Active; inhibition (INH) (Cytochrome P450 2C9): Not Active; inhibition (INH) (Cytochrome P450 2D6): Not Active
2 | CCC[C@@H](CCO)Nc1nc(N)nc2cnn(Cc3ncc(C4CCC5(CC4)CNC5)cc3OC)c12 | 0.133 | 0.177 | 100 | > 25 | 44 | > 14 | > 14 | 14 | > 14 | > 14 | > 14 | > 14 | > 14 | > 14 | 
3 | CCC[C@@H](CCO)Nc1nc(N)nc2cnn(Cc3ncc(C4CCN(CCO)CC4)cc3OC)c12 | 0.049 | 0.124 | 93 | > 25 | 100 | > 20 | > 20 | > 50 | > 20 | > 20 | > 20 | > 20 | > 20 | > 20 | 
4 | CCC[C@@H](CCO)Nc1nc(N)nc2cnn(Cc3ncc(C4=CC5(CCN(C(C)C)CC5)C4)cc3OC)c12 |  | 0.159 | 72 | 16 | 83 | > 20 | > 20 | 62 | > 20 | > 20 | > 20 | > 20 | > 20 | > 20 | 
5 | CCCCNc1nc(N)nc2cnn(Cc3ccc(C4CCNCC4)cc3OC)c12 |  | 0.074 | 89 | > 25 | 54 | 9.42 | > 20 | 4 | 4.97 | > 20 | > 20 | > 20 | > 20 | 14.2 | 
6 | CCC[C@@H](CCO)Nc1nc(N)nc2cnn(Cc3ncc(C4=CC5(CCN(C6CCOCC6)CC5)C4)cc3OC)c12 |  | 0.127 | 75 | 7.2 | 86 | > 20 | > 20 | > 100 | > 20 | > 20 | > 20 | > 20 | > 20 | > 20 | 
7 | CCC[C@@H](CCO)Nc1nc(N)nc2cnn(Cc3ncc(C4CC5(C4)CN(C(C)C)C5)cc3OC)c12 |  | 0.626 |  | > 25 |  |  |  |  |  |  |  |  |  |  | inhibition (INH) (Cytochrome P450 2C19): Not Active; inhibition (INH) (Cytochrome P450 3A4 [3]): Not Active; inhibition (INH) [4]: Not Active; inhibition (INH) (Cytochrome P450 2C8): Not Active; inhibition (INH) (Cytochrome P450 1A2): Not Active; inhibition (INH) (Cytochrome P450 2C9): Not Active; inhibition (INH) (Cytochrome P450 2D6): Not Active
8 | CCCCNc1nc(N)nc2c(C)nn(Cc3ncc(C4CCNCC4)cc3OC)c12 |  | > 5 | 95 | > 25 | 71 | > 20 | 1 | > 50 | > 20 | 1 | 1.21 | > 20 | > 20 | > 20 | 
9 | CCCCNc1nc(N)nc2cnn(Cc3ccc(CNC4CCC4)cc3OC)c12 |  |  | 45 | 15 | 3 | > 20 | 8.14 | 24 | > 20 |  | 14.2 | > 20 | > 20 | 1.12 | 
10 | CCC[C@@H](CCO)Nc1nc(N)nc2cnn(Cc3ncc(C4=CC5(CCNCC5)C4)cc3OC)c12 |  | 1.91 | 80 | > 25 | 93 | > 20 | > 20 | 10 | > 20 | > 20 | > 20 | > 20 | > 20 | > 20 | 
